Assay [1] relates to tRNA^phe (RNA, tRNA) GCGGAUUUAGCUCAGUUGGGAGAGCGCCAGACUGAAGAUCUGGAGGUCCUGUGUUCGAUCCACAGAAUUCGCACCA
The experiment in a line: fluorescence titration, Scatchard, McGhee-von Hippel. As to conditions: 20 mM Na+, citrate-phosphate buffer pH 7.0, 20°C, per nucleotide phosphate, per base.

Assay [2] shares this test system. The experiment in a line: absorption titration, Scatchard, McGhee-von Hippel. The settings on record: 20 mM Na+, citrate-phosphate buffer pH 7.0, 20°C, per nucleotide phosphate, per base.
Assay [3] has the same test system. As to the kind of experiment: DSC and optical melting. As to conditions: Na+, citrate-phosphate buffer pH 7.0, third transition (61°C), first unaffected, compound concentration not stated, per base.
The test system is the same in assay [4]. As to the kind of experiment: ITC, single site model. As to conditions: 20 mM Na+, citrate-phosphate buffer pH 7.0, 20°C, per nucleotide phosphate, per base.

With `COc1cccc2c1cc1c3c(cc4c(c32)OCO4)C(=O)N1[C@@H]1O[C@H](CO)[C@@H](O)[C@H](O)[C@H]1O`, the results for the “K′” value in assay [1] (240 mM DMSO) and in assay [2] (240 mM DMSO) were 6.38 ± 0.20 × 10^4 M^-1 and 4.33 ± 0.20 × 10^4 M^-1, respectively. The same molecule came in with a dTm in assay [3] (second transition about 2°C) of 7 °C. For the same molecule, the K in assay [4] (240 mM DMSO) was 6.5 ± 0.3 × 10^4 M^-1.

On to `COc1cccc2c1C(=O)c1c(O)c3c(c(O)c1C2=O)C[C@@](O)(C(C)=O)C[C@@H]3O[C@H]1C[C@H](N)[C@H](O)[C@H](C)O1`, for which the “K′” value is 18.58 ± 0.32 × 10^4 M^-1 in assay [1] and 21.20 ± 0.30 × 10^4 M^-1 in assay [2]. The dTm in assay [3] (second transition about 4°C) amounted to 12.5 °C. In addition, in assay [4], the K is listed as 22.2 ± 0.1 × 10^4 M^-1.
